Usually IC50 stands for the point on the concentration scale where inhibition reaches its midpoint. Higher therefore signals weaker potency in that assay.

Among the data in BindingDB's records for doi:10.1016/j.bmcl.2004.04.033 (Eli Lilly, 2004) are IC50 values, retold here.

SMILES strings stand for the structures. Counter-ions that a name gives are not always drawn. A value given as a limit tells only on which side of the number the result lay.

The target in the first test is Cyclin-dependent kinase 4/G1/S-specific cyclin-D1 (Homo sapiens, UniProt P11802). Kind of test: CDK Kinase Inhibition Assay. The conditions noted are these: pH 7; 22 °C. The procedure: In vitro CDK assay using purified enzyme, was incubated at room temperature with substrate, and test compounds in the presence of ATP/[gamma-33P]ATP. 33P incorporation was measured with a Top Count (Packard). IC50 is the inhibitor concentration which inhibits 50% of kinase activity that catalyzes the transfer of the terminal phosphate from 33P labeled ATP to the substrate.
Cyclin-dependent kinase 4/G1/S-specific cyclin-D1, sequence (P11802 whole entry): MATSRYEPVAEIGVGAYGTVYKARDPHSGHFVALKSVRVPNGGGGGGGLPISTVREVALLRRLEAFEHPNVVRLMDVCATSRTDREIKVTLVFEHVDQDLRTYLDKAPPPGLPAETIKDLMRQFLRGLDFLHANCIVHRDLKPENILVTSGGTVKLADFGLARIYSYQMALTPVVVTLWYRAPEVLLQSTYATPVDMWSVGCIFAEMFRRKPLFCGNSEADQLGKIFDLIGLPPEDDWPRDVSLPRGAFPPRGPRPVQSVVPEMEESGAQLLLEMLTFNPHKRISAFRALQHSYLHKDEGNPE
Cyclin-dependent kinase 4/G1/S-specific cyclin-D1, sequence (P24385 whole entry, further chain): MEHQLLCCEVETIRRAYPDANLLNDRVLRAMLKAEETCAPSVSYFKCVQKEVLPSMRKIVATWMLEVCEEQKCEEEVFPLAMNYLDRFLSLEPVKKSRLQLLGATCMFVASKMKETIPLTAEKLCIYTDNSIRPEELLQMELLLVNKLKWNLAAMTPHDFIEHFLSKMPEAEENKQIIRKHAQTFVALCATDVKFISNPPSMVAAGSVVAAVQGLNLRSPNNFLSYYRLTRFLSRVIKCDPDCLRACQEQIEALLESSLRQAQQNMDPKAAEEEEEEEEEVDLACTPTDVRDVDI
Compound `COC(=O)CC(NCC1Cc2cccc3c4c5c(c6c7ccc(F)cc7[nH]c6c4n(c23)C1)C(=O)NC5=O)C(=O)OC` (stereo not given) [1,4-dimethyl 2-[({7-fluoro-13,15-dioxo-1,4,14-triazaheptacyclo[16.7.1.0^{2,17}.0^{3,11}.0^{5,10}.0^{12,16}.0^{22,26}]hexacosa-2(17),3(11),5(10),6,8,12(16),18(26),19,21-nonaen-24-yl}methyl)amino]butanedioate] gave an IC50 of 0.671 µM.
On the same count and under the same terms, with `CNCC1Cc2cccc3c4c5c(c6c7ccc(F)cc7[nH]c6c4n(c23)C1)C(=O)NC5=O` (stereo not given) [7-fluoro-24-[(methylamino)methyl]-1,4,14-triazaheptacyclo[16.7.1.0^{2,17}.0^{3,11}.0^{5,10}.0^{12,16}.0^{22,26}]hexacosa-2(17),3(11),5(10),6,8,12(16),18(26),19,21-nonaene-13,15-dione hydrochloride] the figure was 0.008 µM; with `O=C1NC(=O)c2c1c1c3ccc(F)cc3[nH]c1c1c2c2cccc3c2n1CC(CCl)C3` (stereo not given) [24-(chloromethyl)-7-fluoro-1,4,14-triazaheptacyclo[16.7.1.0^{2,17}.0^{3,11}.0^{5,10}.0^{12,16}.0^{22,26}]hexacosa-2(17),3(11),5(10),6,8,12(16),18(26),19,21-nonaene-13,15-dione], 0.064 µM.
Compound `CN(C)CC1Cc2cccc3c4c5c(c6c7ccccc7[nH]c6c4n(c23)C1)C(=O)NC5=O` (stereo not given) [24-[(dimethylamino)methyl]-1,4,14-triazaheptacyclo[16.7.1.0^{2,17}.0^{3,11}.0^{5,10}.0^{12,16}.0^{22,26}]hexacosa-2(17),3(11),5(10),6,8,12(16),18(26),19,21-nonaene-13,15-dione] yielded a concentration for half-maximal inhibition (IC50) of 0.898 µM.
`NC(=O)[C@@H]1CCCN1CC1Cc2cccc3c4c5c(c6c7ccc(F)cc7[nH]c6c4n(c23)C1)C(=O)NC5=O` (stereo partly drawn) [(2S)-1-({7-fluoro-13,15-dioxo-1,4,14-triazaheptacyclo[16.7.1.0^{2,17}.0^{3,11}.0^{5,10}.0^{12,16}.0^{22,26}]hexacosa-2(17),3(11),5(10),6,8,12(16),18(26),19,21-nonaen-24-yl}methyl)pyrrolidine-2-carboxamide] showed an IC50 of over 2 µM.

The next test concerns the target cAMP-dependent protein kinase catalytic subunit alpha (Bos taurus, UniProt P00517). Kind of test: CDK Kinase Inhibition Assay. The conditions noted are these: 25 °C.
Compound `O=C1NC(=O)c2c1c1c3ccc(Br)cc3[nH]c1c1c2c2cccc3c2n1CC(CO)C3` (stereo not given) [7-bromo-24-(hydroxymethyl)-1,4,14-triazaheptacyclo[16.7.1.0^{2,17}.0^{3,11}.0^{5,10}.0^{12,16}.0^{22,26}]hexacosa-2(17),3(11),5(10),6,8,12(16),18(26),19,21-nonaene-13,15-dione] had an IC50 of over 2 µM.
On the same count and under the same terms, the figure for `O=C1NC(=O)c2c1c1c3ccc(F)cc3[nH]c1c1c2c2cccc3c2n1CC(CO)C3` (stereo not given) [7-fluoro-24-(hydroxymethyl)-1,4,14-triazaheptacyclo[16.7.1.0^{2,17}.0^{3,11}.0^{5,10}.0^{12,16}.0^{22,26}]hexacosa-2(17),3(11),5(10),6,8,12(16),18(26),19,21-nonaene-13,15-dione] is over 2 µM; for `CNCC1Cc2cccc3c4c5c(c6c7ccc(F)cc7[nH]c6c4n(c23)C1)C(=O)NC5=O` (stereo not given) [7-fluoro-24-[(methylamino)methyl]-1,4,14-triazaheptacyclo[16.7.1.0^{2,17}.0^{3,11}.0^{5,10}.0^{12,16}.0^{22,26}]hexacosa-2(17),3(11),5(10),6,8,12(16),18(26),19,21-nonaene-13,15-dione hydrochloride] it is 0.383 µM.
On the same count and under the same terms, the figure for `O=C1NC(=O)c2c1c1c3ccc(F)cc3[nH]c1c1c2c2cccc3c2n1C(CO)CC3` (stereo not given) [7-fluoro-25-(hydroxymethyl)-1,4,14-triazaheptacyclo[16.7.1.0^{2,17}.0^{3,11}.0^{5,10}.0^{12,16}.0^{22,26}]hexacosa-2(17),3(11),5(10),6,8,12(16),18(26),19,21-nonaene-13,15-dione] is over 2 µM; for `O=C1NC(=O)c2c1c1c3ccccc3[nH]c1c1c2c2cccc3c2n1CCC3CO` (stereo not given) [23-(hydroxymethyl)-1,4,14-triazaheptacyclo[16.7.1.0^{2,17}.0^{3,11}.0^{5,10}.0^{12,16}.0^{22,26}]hexacosa-2(17),3(11),5(10),6,8,12(16),18(26),19,21-nonaene-13,15-dione] it is over 2 µM.
`O=C1NC(=O)c2c1c1c3ccccc3[nH]c1c1c2c2cccc3c2n1CC(CO)C3` (stereo not given) [24-(hydroxymethyl)-1,4,14-triazaheptacyclo[16.7.1.0^{2,17}.0^{3,11}.0^{5,10}.0^{12,16}.0^{22,26}]hexacosa-2(17),3(11),5(10),6,8,12(16),18(26),19,21-nonaene-13,15-dione] came in with an IC50 of over 2 µM.
On the same count and under the same terms, the figure for `O=C1NC(=O)c2c1c1c3ccc(C(F)(F)F)cc3[nH]c1c1c2c2cccc3c2n1CC(CO)C3` (stereo not given) [24-(hydroxymethyl)-7-(trifluoromethyl)-1,4,14-triazaheptacyclo[16.7.1.0^{2,17}.0^{3,11}.0^{5,10}.0^{12,16}.0^{22,26}]hexacosa-2(17),3(11),5(10),6,8,12(16),18(26),19,21-nonaene-13,15-dione] is over 2 µM; for `COc1ccc2c(c1)[nH]c1c2c2c(c3c4cccc5c4n(c13)CC(CO)C5)C(=O)NC2=O` (stereo not given) [24-(hydroxymethyl)-7-methoxy-1,4,14-triazaheptacyclo[16.7.1.0^{2,17}.0^{3,11}.0^{5,10}.0^{12,16}.0^{22,26}]hexacosa-2(17),3(11),5(10),6,8,12(16),18(26),19,21-nonaene-13,15-dione] it is over 2 µM; for `O=C1NC(=O)c2c1c1c3ccccc3ccc1c1c2c2cccc3c2n1CC(CO)C3` (stereo not given) [25-(hydroxymethyl)-1,15-diazaheptacyclo[17.7.1.0^{2,18}.0^{3,12}.0^{6,11}.0^{13,17}.0^{23,27}]heptacosa-2(18),3(12),4,6(11),7,9,13(17),19(27),20,22-decaene-14,16-dione] it is over 2 µM.
On the same count and under the same terms, the figure for `O=C1NC(=O)c2c1c1c3ccccc3ccc1c1c2c2cccc3c2n1C(CO)CC3` (stereo not given) [26-(hydroxymethyl)-1,15-diazaheptacyclo[17.7.1.0^{2,18}.0^{3,12}.0^{6,11}.0^{13,17}.0^{23,27}]heptacosa-2(18),3(12),4,6(11),7,9,13(17),19(27),20,22-decaene-14,16-dione] is over 2 µM.
